Test results taken from patent publication US12337049B2, “Method for whitening skin using composition for skin whitening” (AMOREPACIFIC CORPORATION, priority 2021, dated 2025).

What was measured:
Type in all cases: cell-based
[1] = system: melanin-producing enzymes (TRP1, TRP2) in normal human melanocytes; experiment: Increase in protein expression of melanin-producing enzymes (TRP1, TRP2) by C. acnes; settings: 10^7 CFU/ml live C. acnes, 1 nM to 100 nM, 2 days, FIGS. 11 and 12
Procedure: Cutibacterium acnes (C. acnes, ATCC 6919) are inoculated in a BHI medium and cultured at 37° C. under anaerobic conditions for 72 hours to 96 hours, and then, the medium is collected. The collected medium is centrifuged (4° C., 10 minutes at 5,000×g), precipitating the bacteria. The precipitated bacteria are twice washed with phosphate-buffered saline (PBS) and treated up to a final concentration of 10^10 CFU/ml, preparing a live C. acnes stock, and the live C. acnes stock is cryopreserved at −80° C. Normal human melanocytes are placed on 6-well plates, and the next day, the medium is changed to a PMA-free melanocyte medium. Herein, 10^4, 10^5, 10^6, and 10^7 CFU/ml of live C. acnes are treated. After culturing for 2 days, the cells broken by using a lysis buffer in each well to separate proteins. The separated proteins are measured with respect to relative protein expression levels by using a specific antibody for TRP1 (tyrosinase related protein 1) and TRP2 (tyrosinase related protein 2), which are melanin-producing enzymes.
Normal human melanocytes are placed on 6-well plates, and the next day, the medium is changed to a PMA-free melanocyte medium. […] The separated proteins are measured with respect to relative protein expression levels by using a specific antibody for TRP1 (tyrosinase related protein 1) and TRP2 (tyrosinase related protein 2), which are melanin-producing enzymes.

[2] = system: melanin-producing enzyme (tyrosinase, TRP2) in normal human melanocytes; experiment: Increase in protein expression of melanin-producing enzyme (tyrosinase, TRP2) by pigmentation inducer (IBMX); settings: 100 μM IBMX, 0.001-100 nM, 4 days, FIGS. 7 to 9
Procedure: (§1) Normal human melanocytes are placed on a 6-well plate, and the next day, the medium is changed to a PMA-free melanocyte medium. At this time, they are treated with each composition including the compound represented by Chemical Formula 1-1 (Cayman chemical) in an amount of 0 nM, 0.001 nM, 0.01 nM, 0.1 nM, 1 nM, 10 nM, and 100 nM, respectively (based on the total amount of the composition) along with 100 μM pigmentation inducer (IBMX). After culturing for 4 days, the cells are broken using a lysis buffer in each well and then the proteins are separated. Subsequently, the separated proteins are measured with respect to relative protein expression levels by using a specific antibody for TRP2 (tyrosinase related protein 2), which is a melanin-producing enzyme.

[3] = system: melanin-producing enzyme (tyrosinase, TRP2) in normal human melanocytes; experiment: Increase in protein expression of melanin-producing enzyme (tyrosinase, TRP2) by pigmentation inducer (α-MSH); settings: 500 nM α-MSH, 0.001-100 nM, 4 days, FIGS. 4 to 6
Procedure: as §1, with “500 nM” for “100 μM”, “(α-MSH).” for “(IBMX).”

[4] = system: melanin-producing enzymes (tyrosinase, TRP2) in normal human melanocytes; experiment: Protein expression of melanin-producing enzymes (tyrosinase, TRP2) in normal human melanocytes without inducer; settings: no inducer, 0.001-100 nM, 4 days
Procedure: as §1, with “to a […] melanocyte medium.” for “to a PMA-free melanocyte medium.”, “of the composition). After culturing” for “of the composition) along with 100 μM pigmentation inducer (IBMX). After culturing”, “antibody for tyrosinase which is a melanin-producing enzyme from, TRP2 (tyrosinase” for “antibody for TRP2 (tyrosinase”, “related protein 2).” for “related protein 2), which is a melanin-producing enzyme.”

increase in protein expression of the melanin-producing enzyme (TRP1, TRP2) by C. acnes [1]: effectively inhibited
increase in protein expression of the melanin-producing enzyme (tyrosinase, TRP2) by IBMX [2]: effectively inhibited
increase in protein expression of the melanin-producing enzyme (tyrosinase, TRP2) by α-MSH [3]: effectively inhibited
increase in the protein expression of the melanin-producing enzyme (tyrosinase, TRP2) ([4]; antibody detection vs GAPDH, FIGS. 1 to 3): effectively inhibited
Compound: CC/C=C\C[C@H](O)/C=C/C=C\C/C=C\C=C\[C@@H](O)C/C=C\CCC(=O)O [Chemical Formula 1-1]
increase in protein expression of the tyrosinase ([4]; concentration dependence): effectively inhibited depending on a concentration
